The numbers were not newly measured in paper PMC7544826 (Communications Biology, 2020), which cites them from elsewhere.

In this data set the test system is Notum. Further details: method as in PMID 31876313. The conditions noted are these: read-out: IC50, Notum inhibition (reported potency); cited from earlier work.

What is called IC50 is the concentration at which inhibition is half-maximal. As to `COc1ccc2[nH]cc(CCNC(C)=O)c2c1` [melatonin], the IC50 is 75 µM.
